Source: patent US7297794B2, “Phenoxy amine compounds and compositions for delivering active agents” (Emisphere Technologies, Inc., priority 2001, dated 2007)
Where “and” joins values, the source holds several entries; their conditions need not be identical. Identical values can stand only once. Counter-ions that a name gives are not always drawn.

experiment: Oral BIBN4096BS Delivery (peak BIBN4096BS concentration after oral gavage with delivery agent compound); details: rat, delivery agent compound 200 mg/kg + BIBN4096BS 25 mg/kg, 1 ml/kg
Experimental: Oral gavage (PO) dosing solutions of delivery agent compound and the calcitonin gene-related peptide antagonist, 1-piperidinecarboxamide, N-[2-[[5-amino-1-[[4-(4-pyridinyl)-1-piperazinyl)carbonyl]pentyl]amino]-1-[(3,5-dibromo-4-hydroxyphenyl)methyl]-2-oxoethyl]-4(1,4-dihydro-2-oxo-3(2H0-quinazolinyl)-. [R—(R*,S*)]- (BIBN4096BS) in water were prepared. […] The final dosing solutions were prepared by mixing the delivery agent compound with a BIBN4096BS stock solution and diluting to the desired volume (usually 1.0 mL). If necessary, the pH of the mixture was adjusted by the addition of aliquots of aqueous hydrochloric acid solution of an appropriate normality until the final pH of the dissolved delivery agent compound was below 7.0. The final compound amounts per dose were 25 mg/kg of BIBN4096BS and 200 mg/kg of delivery agent compound in a total volume of 1 mL/kg.
The typical dosing and sampling protocols were as follows. Male Sprague-Dawley rats weighing between 200-250 g were fasted for 24 hours and administered ketamine (44 mg/kg) and chlorpromazine (1.5 mg/kg) 15 minutes prior to dosing. A dosing group of five rats was administered one of the dosing solutions. […] Plasma BIBN4096BS concentrations were quantified by using a liquid chromatography/mass spectrometry/mass spectrometry assay method using UV detection. […]

Question: With `CS(=O)(=O)O.Oc1ccccc1OCCCCCCCCN1CCOCC1` [1 (Mesylate), (4-(8-(2-hydroxyphenoxy)octyl)morpholine)mesylate] as the compound, how does the “Mean Peak Serum ± sd ng/ml (BIBN4096BS)” value read?
Answer: 408 ± 340 ng/mL and 608 ± 552 ng/mL

experiment: not given; details: not given

Question: With `Oc1ccccc1OCCCCCCCCN1CCOCC1` (as salt: salt) [Compound 1, 4-8-(2-hydroxyphenoxy) octylmorpholine] as the compound, how does the melting point read?
Answer: 137 to 139 °C

Question: Which melting point does the source give for `CC(=O)c1ccccc1OCCCCCCN(C)C.Cl` [Compound 8, 6-(2-acetylphenoxy)-1-dimethylaminohexane hydrochloride] here?
Answer: 138 to 141 °C

experiment: Insulin - Oral Delivery (glucose levels in serum after oral dosing of delivery agent compound with human zinc insulin); assay type: in vivo, Male Sprague-Dawley rats; details: rat, delivery agent compound 200 mg/kg + insulin 0.5 mg/kg, volume dose 2 ml/kg
Experimental: Oral dosing (PO) compositions of delivery agent compound and human zinc insulin (minimum 26 IU/mg available from Calbiochem-Novabiochem Corp, La Jolla, Calif.) were prepared in deionized water. Typically, 500 mg of delivery agent compound was added to 1.5 ml of water. The solution was vortexed, then heated (about 37° C.) and sonicated. The pH was adjusted to about 7 to 8.5 with NaOH or HCl. Additional NaOH was added, if necessary, to achieve uniform solubility, and the pH re-adjusted to about 7 to 8.5. Water was then added to bring the total volume to about 2.4 ml and vortexed. About 1.25 mg insulin from an insulin stock solution ([…] made from 0.5409 g insulin and 18 ml deionized water, adjusting with HCl and NaOH to pH 8.15 and to obtain a clear solution using […]) was added to the solution and mixed by inverting. The solution may be used in the dosing protocol immediately, or alternatively, the solution may be placed into a 37° C. water bath for one hour prior to dosing. The final delivery agent compound dose, insulin dose and dose volume amounts are listed below in Table 1.
The typical dosing and sampling protocols were as follows. […] A dosing group of five animals was administered one of the dosing solutions. […] The dosing solution was administered by pressing the syringe plunger.

Question: Which “Glucose Levels in Serum (% change from baseline ± SD)” value does the source give for `Oc1ccccc1OCCCCCCCCN1CCOCC1` [Compound 1, 4-8-(2-hydroxyphenoxy) octylmorpholine] here?
Answer: −5.9 ± 4.6% and 0.3 ± 8.2%

Question: With `NCCCCCCCCOc1ccc(O)cc1` [Compound 6, 8-(4-hydroxyphenoxy)octanamine] as the compound, how does the “Glucose Levels in Serum (% change from baseline ± SD)” value read?
Answer: 6.4 ± 17.1%

Question: For `Oc1ccc(OCCCCCCN2CCOCC2)cc1` [Compound 4], which “Glucose Levels in Serum (% change from baseline ± SD)” value is on record?
Answer: −2.3 ± 10.6%

Question: For “4-(4-(2-hydroxyphenoxy)butyl)morpholinium Citrate [Compound 7]”, which “Glucose Levels in Serum (% change from baseline ± SD)” value is on record?
Answer: −11.7 ± 3.4%

Question: For `CC(=O)c1ccccc1OCCCCCCN(C)C.Cl` [Compound 8, 6-(2-acetylphenoxy)-1-dimethylaminohexane hydrochloride], which “Glucose Levels in Serum (% change from baseline ± SD)” value is on record?
Answer: −8.2 ± 9.5%

Question: For `Oc1ccccc1OCCCCCCCN1CCOCC1` [Compound 3, 7-(4-(2hydroxyphenoxy)heptylmorpholinium citrate], which “Glucose Levels in Serum (% change from baseline ± SD)” value is on record?
Answer: −9.8 ± 4%

Question: Which “Glucose Levels in Serum (% change from baseline ± SD)” value does the source give for `OCCN(CCO)CCCCCCCCOc1ccccc1O` [Compound 2, 8-(2-hydroxyphenoxy) octyldiethanolamine) citrate] here?
Answer: −10.8 ± 6.8%
